In US9730906B2, “α-derivatives of cis-monounsaturated fatty acids for use as medicines” (UNIVERSITAT DE LES ILLES BALEARS, priority 2008, dated 2017):

Columns and labels:
[1] = tested on: Human glioma cells (U118); test: Differentiation of human glioma cells (U118); assay type: cell-based; details: 200 μM
Source text: FIG. 16B. Human glioma cells (U118) are astrocytes of the central nervous system ([…]) that have lost their differentiation (Control). […] This differentiating activity can be involved in neuroregenerative processes necessary for recovery of motor activity.
This effect may be due to the induction of neural projection sprouting necessary to re-establish connections lost by the nerve fibre lesion.

[2] = tested on: A172; test: Effect of OHOD on cancer cells in culture (Table 2); assay type: cell-based, human; parameters: key to Anti-tumour effect: + [inhibition of growth]; ++ [total halt of growth]; +++ [total removal of tumour cells]; key to Mechanism of action: P [anti-proliferative]; D [differentiation]; A [apoptosis]; details: A172, Glioma
Protocol: (§1) Also, a series of α-derivatives of cis-monounsaturated fatty acids were used to investigate their effectiveness in cancer treatment. Two types of experiment were performed. Firstly, the dependency of the anti-tumour effect on concentration was investigated. To perform these experiments, human lung cancer cells (A549) were cultivated in RPMI medium, supplemented with 10% foetal bovine […], 10 mM Hepes (pH 7.4), 2 mM glutamine, 2 g/l bicarbonate, 1 g/l glucose, 100 units/ml penicillin, 0.1 mg/ml streptomycin, 0.25 μg/ml Amphotericin B, at 37° C. and in the presence of 5% CO2. In a first experimental series, these cells were treated with various concentrations (0-400 μM) of OHOD and MOD11 and the number of cells was determined by flow cytometry (FIG. 3A). […] In a second series, the anti-tumour effectiveness on A549 lung cancer cells was investigated at a single concentration (150 μM) and a time of 48 hours (FIG. 3B). […] Obviously, among the previous molecules, some lacked both modifications on the α-carbon and the double bond in cis configuration (EO, HDO, ODO) and had no therapeutic effect.
(§2) In a second experimental series, designed to discover whether these molecules are effective in treatment of different types of tumours, the effect of OHOD at various concentrations on human cells of different types of cancer was studied. These experiments were performed as described before, except that the M220 and HT-29 cell lines were cultured in DMEM medium and the MDA-MB-231 line was incubated in Leibowitz L-15 medium supplemented with 15% foetal bovine […]. […] Where the nature of the tumour process requires, application can be topical (use on the skin of active products for the treatment of melanoma and other cutaneous abnormalities of cancerous nature), which can be considered as cosmetic treatments when attempts are made to correct aesthetic defects.

[3] = tested on: SH-SY5Y; test: as above; assay type: cell-based, human; parameters: key to Anti-tumour effect: + [inhibition of growth]; ++ [total halt of growth]; +++ [total removal of tumour cells]; key to Mechanism of action: P [anti-proliferative]; D [differentiation]; A [apoptosis]; details: Neuroblastoma
Protocol: as §1, §2

[4] = tested on: A118; test: as above; assay type: cell-based, human; parameters: key to Anti-tumour effect: + [inhibition of growth]; ++ [total halt of growth]; +++ [total removal of tumour cells]; key to Mechanism of action: P [anti-proliferative]; D [differentiation]; A [apoptosis]; details: A118, Glioma
Protocol: as §1, §2

[5] = tested on: HeLa; test: as above; assay type: cell-based, human; parameters: key to Anti-tumour effect: + [inhibition of growth]; ++ [total halt of growth]; +++ [total removal of tumour cells]; key to Mechanism of action: P [anti-proliferative]; D [differentiation]; A [apoptosis]; details: Cervix
Protocol: as §1, §2

[6] = tested on: U87-MG; test: as above; assay type: cell-based, human; parameters: key to Anti-tumour effect: + [inhibition of growth]; ++ [total halt of growth]; +++ [total removal of tumour cells]; key to Mechanism of action: P [anti-proliferative]; D [differentiation]; A [apoptosis]; details: Glioma
Protocol: as §1, §2

[7] = tested on: LNcaP; test: as above; assay type: cell-based, human; parameters: key to Anti-tumour effect: + [inhibition of growth]; ++ [total halt of growth]; +++ [total removal of tumour cells]; key to Mechanism of action: P [anti-proliferative]; D [differentiation]; A [apoptosis]; details: Prostate
Protocol: as §1, §2

[8] = tested on: aortas of SHR rats; test: Contractile response induced by noradrenalin in isolated aorta, organ bath; parameters: species or system rat; details: aortas pre-treated 60 minutes in organ bath at 37° C., vs vehicle, p<0.05
Protocol: FIG. 11. Effect of OHOD on the contractile response induced by noradrenalin (NA) in aortas of SHR rats. The logarithm of NA is shown on the horizontal axis and the concentration (g) is shown on the vertical axis. The aortas were treated with OHOD (filled circles) or vehicle (empty circles) for 60 minutes in an organ bath at 37° C. in Ringer medium with oxygen.
Atherosclerosis or arteriosclerosis is a pathology characterised by the loss of contractility of blood vessels. This loss is associated with diverse factors, among which is the formation of deposits on the vascular lumen giving rise to the proliferation of vascular cells, reduction of blood flow and vasoconstrictor and vasodilator responses to neurotransmitters (such as noradrenalin) and to hormones. In studies in isolated rat aorta in organ bath, it was shown that the contraction power of the aortic muscle in response to noradrenalin increased very markedly after pre-treatments with OHOD acid. In addition, all the compounds with the structure of Formula I had similar effects on vascular muscle.

Structure (SMILES) | differentiation of glioma cells [1] | Anti-tumour effect [2] | Mechanism of action [2] | Anti-tumour effect [3] | Mechanism of action [3] | Anti-tumour effect [4] | Mechanism of action [4] | Anti-tumour effect [5] | Mechanism of action [5] | Anti-tumour effect [6] | Mechanism of action [6] | Anti-tumour effect [7] | Mechanism of action [7] | contractile response induced by noradrenalin (NA) [8]
CCCCCCCC/C=C\CCCCCCC(O)C(=O)[O-].[Na+] (centres unmarked) [Na-OHOD] | differentiate and develop towards the glial phenotype | – | – | – | – | – | – | – | – | – | – | – | – | –
CCCCCCCC/C=C\CCCCCCC(O)C(=O)O (stereo not drawn) [OHOD, α-Hydroxy-cis-Δ9-octadecenoic] | – | ++ | D | + | P | +++ | D | +++ | A | +++ | D | +++ | A | much higher
